Measurements as given in US20090270447A1, “2-Aryl-and 2-Heteroarylthiazolyl Compounds, Methods for Their Preparation and Use Thereof” (Wyeth, priority 2008, published 2009).

Test system: xenografts of a human breast carcinoma cell line (MDA-MB-361)
Test: In-vivo activity in tumor xenografts
Description: Selected fused heterobicyclic 2-aryl- or 2-heteroarylthiazolyl compounds of formula I were tested for their activity in a securin parental cell line (HCT116 FB) and a securin knockout (KO) cell line. […] The in-vivo activity of selected fused heterobicyclic 2-arylarylthiazolyl compounds of formula I was studied in cells growing as xenografts in athymic (nude) mice. The effect of Examples 5-7 and 10 was studied in xenografts of a human breast carcinoma cell line (MDA-MB-361).
In-vivo Activity in Tumor Xenografts. The effectiveness of Examples 5-7 versus Vincristine at controlling tumor growth was studied and the results are summarized in Table 2 and FIG. 1. The 2-arylthiazolyl compounds were formulated 0.5% Methocel™ (methylcellulose) and 0.4% Tween 80™ (polysorbate-80 and oleic acid) and administered daily orally (PO), by gavage or intraperiotenially (IP) by syringe. Tumor mass [(length×width^2)/2] was determined every 7 days. Inhibition of tumor growth was calculated relative to conventional (vehicle treated) controls.

[1] = 20 mg/kg/dose PO, days 1 through 20
[2] = 50 mg/kg/dose PO, days 1 through 20
[3] = 0.8 mg/kg/dose IP, days 1, 5 and 9

| Compound | S/T = # of Survivors/# of Treated on Day +21 post tumor staging [1] | % T/C Day 7 [1] [%] | Relative Tumor Growth Day 7 [1] | % T/C Day 14 [1] [%] | Relative Tumor Growth Day 14 [1] | % T/C Day 21 [1] [%] | Relative Tumor Growth Day 21 [1] | S/T = # of Survivors/# of Treated on Day +21 post tumor staging [2] | % T/C Day 7 [2] [%] | Relative Tumor Growth Day 7 [2] | % T/C Day 14 [2] [%] | Relative Tumor Growth Day 14 [2] | % T/C Day 21 [2] [%] | Relative Tumor Growth Day 21 [2] | % T/C Day 7 [3] [%] | Relative Tumor Growth Day 7 [3] | % T/C Day 14 [3] [%] | Relative Tumor Growth Day 14 [3] | % T/C Day 21 [3] [%] | Relative Tumor Growth Day 21 [3] |
| --- | --- | --- | --- | --- | --- | --- | --- | --- | --- | --- | --- | --- | --- | --- | --- | --- | --- | --- | --- | --- |
| OC1CCCc2nc(-c3ccc(N4CCCC4)cc3)sc21 (centres unmarked) [2-(4-pyrrolidiny-1-ylphenyl)-4,5,6,7-tetrahydro-1,3-benzothiazol-7-ol, reference compound] | 10/10 | 101 | 1.67 | 109 | 5.48 | 132 | 12.07 | 10/10 | 95 | 1.57 | 78 | 3.93 | 95 | 8.73 |  |  |  |  |  |  |
| CC[C@]1(O)C[C@H]2CN(CCc3c([nH]c4ccccc34)[C@@](C(=O)OC)(c3cc4c(cc3OC)N(C=O)[C@H]3[C@@](O)(C(=O)OC)[C@H](OC(C)=O)[C@]5(CC)C=CCN6CC[C@]43[C@@H]65)C2)C1 [Vincristine, reference compound] |  |  |  |  |  |  |  |  |  |  |  |  |  |  | 80 | 1.33 | 43 | 2.14 | 58 | 5.29 |
